Data set [1] is described as follows: Water absorption for a modified Bis-GMA monomer, Karl Fischer titration. In kind it is physicochemical. Here is the method: 2. Water absorption for a modified Bis-GMA monomer is measured according to Karl Fischer titration.
(§1) The modified Bis-GMA obtained in Example 2 and Bis-GMA were subjected to viscosity and water absorption tests.

Data set [2] is described as follows: Viscosity measured using a Brookfield viscosmeter. As to conditions: monomer. Type of data set: physicochemical. As to the method: 1. Viscosity is measured using a Brookfield viscosmeter.
as §1

The structures appear in SMILES notation.

`C=C(C)C(=O)OCC(O)COc1ccc(C(C)(C)c2ccc(OCC(O)COC(=O)C(=C)C)cc2)cc1` (stereo not shown) [Bis-GMA, 2,2-bis[4-(2-hydroxyl-3-methacryloyloxy)phenyl] propane] returned a Water absorption in data set [1] of 35 mg/mm^3/week. In data set [2], this compound displayed a Viscosity of 458400 cp.

`C=C(C)C(=O)OCC(COc1ccc(C(C)(C)c2ccc(OCC(COC(=O)C(=C)C)O[Si](CC)(CC)CC)cc2)cc1)O[Si](CC)(CC)CC` (stereo not shown) [Example 2]: the Water absorption in data set [1] turned out to be 7.4 mg/mm^3/week. For the same compound, the Viscosity in data set [2] was determined as 440 cp.

Source of the values: patent US20090215921A1, “MODIFIED DIMETHYLACRYLATE MONOMER, METHOD FOR PREPARING THE SAME, AND POLYMERIC DENTAL COMPOSITE” (priority 2008, published 2009).
